“Also recorded” adds a separate entry of the source.
Tested on: BEAS-2B cells
Experiment: IL-8 release induced by TNF-α on BEAS-2B cells (ELISA on supernatant after 6 h)
Format: cell-based, human
Method: BEAS-2B cells were co-incubated with TNF-α (1 pg/mL) alone or with different doses of budesonide (1.5; 0.75; 0.5; 0.1 nM). After 6 hours of incubation, the IL-8 concentration was measured in the supernatant. IL-8 levels are expressed as a percentage of the IL-8 level induced by stimulation with TNF-α for 6 hours. The results correspond to the mean+SEM for at least 3 experiments, n=6-12 technical replicates. *p<0.05 and ***p<0.001 compared with the TNF-α control group.
BEAS-2B cells were co-incubated with TNF-α (1 pg/mL) alone or with a strain of E. faecalis (CNCM I-4969; I-5701; I-5699) MOI 10:1, and/or 0.1 nM of budesonide, or 0.5 nM of budesonide. After 6 hours of incubation, the IL-8 concentration was measured in the supernatant by ELISA. IL-8 levels are expressed as a percentage of the IL-8 level induced by stimulation with TNF-α for 6 hours. The results correspond to the median of 3 experiments, n=9 technical replicates. *p<0.05 and ***p<0.001 compared with the TNF-α control group, by a Kruskal-Wallis non-parametric test followed by Dunn's post-test.
Human bronchial cells (BEAS-2B) are cultured and a pro-inflammatory situation is induced via the addition of TNF-α to the medium. The BEAS-2B cells then respond by releasing IL-8 into the medium. The IL-8 assay after 6 hours is used to estimate the activation state of the cells, which can be reduced by adding an anti-inflammatory agent.

SMILES: CCCC1O[C@@H]2C[C@H]3[C@@H]4CCC5=CC(=O)C=C[C@]5(C)[C@H]4[C@@H](O)C[C@]3(C)[C@]2(C(=O)CO)O1 (stereo partly drawn) [budesonide]
- inhibition at 0.0005 µM (Homo sapiens, BEAS-2B, budesonide alone at 5-times higher dose (0.5 nM), TNF-α-stimulated BEAS-2B): 50%
- inhibition of IL-8 release (budesonide alone at 5-times higher dose (0.5 nM), TNF-α-stimulated BEAS-2B, 0.0005 µM): 55%
- effect on the release of IL-8 induced by TNF-α (budesonide alone, 0.1 nM, BEAS-2B): do not have any effect; also recorded: no effect
